Assay results from US20260153494A1 (AGRICUL TURAL UNIVERSITY OF ATHENS, priority 2023, published 2026).

Columns and labels:
[1] = tested on: FGGsh155:CB[8] hexamer (FGG-tagged phi class glutathione S-transferase GSTF mutant sh155, SEQ ID NO: 2, with cucurbit[8]uril 1:1); format: biochemical
Protocol: (§1) GST activity assays were carried by using the 1-chloro-2,4-dinitrobenzene (CDNB)/glutathione (GSH) substrate system as described previously (Axarli et al., 2017; Georgakis et al., 2020). Determination of enzyme activity was conducted using 1 mM CDNB and 2.5 mM GSH final concentration in 0.1 M KH2PO4, PH 6.5 and 37° C. Kinetic analysis of the potential supramolecular protein complexes was performed as previously described (Axarli et al., 2016, Georgakis et al., 2020) five days after addition of CB[8] to the enzyme solution in 1:1 stoichiometry. Protein precipitates were removed by centrifugation at 10,000 rpm for 10 min prior to the analysis. The steady state data were processed using GraphPad Prism version 7 (GraphPad Prism Software, Inc.). Turnover numbers were evaluated for one active site per subunit of enzyme. Specific activity (SA) was estimated in micromoles per minute per milligram of protein (μmol min-1 mg-1). Determination of protein concentration was carried using the Bradford assay with bovine serum albumin as standard (Bradford, 1976).
(§2) The kinetic parameters of FGGsh101 and FGGsh155 were analyzed both in absence of CB[8] and five days after the addition of the macrocyclic host in 1:1 ratio. […] (see Example 3)

[2] = tested on: FGGsh101:CB[8] (FGG-tagged phi class glutathione S-transferase GSTF mutant sh101, SEQ ID NO: 1, with cucurbit[8]uril 1:1); format: biochemical
Protocol: as §1, §2

[3] = tested on: FGGsh155 (phi class glutathione S-transferase GSTF mutant sh155, derived by DNA shuffling, with N-terminal FGG tag, SEQ ID NO: 2); format: biochemical
Protocol: as §1, §2

[4] = tested on: FGGsh101 (phi class glutathione S-transferase GSTF mutant sh101, derived by DNA shuffling, with N-terminal FGG tag, SEQ ID NO: 1); format: biochemical
Protocol: as §1, §2

[5] = tested on: Immobilized FGGsh155:CB[8] hexamer (GSTF mutant sh155, FGG-tagged, SEQ ID NO: 2, with cucurbit[8]uril 1:1, on glutaraldehyde-crosslinked chitosan); format: biochemical
Protocol: Initially, 2%, 3% and 4% (w/v) medium molecular weight chitosan (molecular weight of 190 to 310 kDa) was dissolved by continuous stirring in 2% (v/v) acetic acid. The formed chitosan gels were stored at 4° C. until the following day (12 to 24 hours) in order to remove any trapped air. For the immobilisation, 180 mg of chitosan gel were deposited by a syringe at the bottom of a cuvette with 4 mL capacity. Then 50 μL of different concentrations of GA solution [0.4%, 0.5%, 0.6%, 0.7%, and 1% (v/v)] were added and the mixture was lightly stirred with a pipette tip. The carrier mixture was left for an hour so that the reaction of GA binding to the amino groups of the carrier was accomplished. GA was diluted in 20 mM KH2PO4, PH 7.0. Afterwards, the carrier was washed thrice with 2 mL 20 mM KH2PO4, PH 7, in order to remove any unbound GA molecules. The immobilization of FGGsh155:CB[8] was performed five days after the addition of the CB[8] macrocyclic agent at stoichiometry of 1:1, for uniformity of the experiments. Thus, 600 μL of the enzyme solution with 0.7-0.8 mg/mL concentration were added to the activated chitosan medium. The enzyme was incubated with the carrier at 25° C. overnight with stirring at 50-80 rpm. The following day, the volume of the enzyme solution that wasn't absorbed by the carrier was removed and the carrier was incubated with 600 μL of 2 mg/mL NaBH4 solution for 30 min. This step was conducted in order to stabilize the Schiff's bases that form due to the reaction of GA with the enzyme amino groups (Barbosa et al., 2014). Finally, three washes were performed with 20 mM KH2PO4, PH 7, for the removal of any unbound enzyme. Protein binding efficiency to the carrier (%) and retention of enzyme activity (%) were defined as: […]
Determination of the enzyme activity for the immobilised enzyme complex FGGsh155:CB[8] was performed using the CDNB/GSH substrate system with 20 mM KH2PO4, PH 7, as a reaction solution at 37° C., as has been previously described (Georgakis et al., 2020a; Axarli et al., 2017; Cho et al., 2005). The rate assay was recorded for 300 s at 340 nm.
Kinetic analysis for GSH was performed using standard CDNB concentration (1 mM) and varying GSH concentrations. Correspondingly, standard concentration of GSH substrate (2.5 mM) and varying concentrations of CDNB were utilised in the kinetic analysis for CDNB.
The kinetic parameters of the immobilized FGGsh155:CB[8] were calculated using the CDNB/GSH substrate system in 20 mM KH2PO4, PH 7.0, at 37° C. (FIG. 20) depicts the dependence of the enzyme's reaction rate on the substrate concentration. […] Respectively the kinetic analysis for GSH was carried with standard CDNB concentration (1 mM) and different GSH concentrations. […] The reduction in kcat is usually expected after immobilization (Neira & Herr, 2017).

[6] = Thermal stability (Tm) by differential scanning fluorimetry; format: physicochemical; conditions: for second distinct melting point Tm2 / increase in Tm1: after addition of CB[8]; for increase in Tm1: versus Tm0, especially 1:1 stoichiometry
Protocol: The thermostability of FGG-GSTFs, FGGsh101 and FGGsh155 was assessed by differential scanning fluorimetry (DSF) in the presence of the macrocyclic compound CB[8]. CB[8] was added in stoichiometry of 1:1 and 2:1 enzyme to host concentration. The reaction was performed in 50 mM KH2PO4 solution, pH 7.14, using either 15 μM enzyme and 15 μM CB[8] (1:1) or 15 μM enzyme and 7.5 μM CB[8] (2:1). A “control” reaction for each ratio was also measured, where only CB[8]'s solvent of was added to the enzyme. Differential scanning fluorimetry was performed in 20 mM KH2PO4 buffer, pH 7, with 4 μg of protein sample, according to published methods (Huynh & Partch, 2015). Thermal shift assays we carried using a Real-time PCR StepOne™ instrument (Applied Biosystems, USA) and the SYPRO Orange protein dye at a temperature range between 15° C. and 99° C. with a ramping rate of 1%. Temperature of protein denaturation midpoint (Tm) was estimated by the first derivative of the normalized fluorescence data.

[7] = Steady-state kinetic analysis of FGG-GSTFs, CDNB/GSH substrate system; format: biochemical; conditions: for catalytic constant: enzyme samples with CB[8] in 1:1 stoichiometry; for kcat: free enzyme
Protocol: as §1
The kinetic parameters of FGGsh101 and FGGsh155 were analyzed both in absence of CB[8] and five days after the addition of the macrocyclic host in 1:1 ratio. This was determined according to the fluorescence intensity monitoring experiments, where the reduction of fluorescence emission appeared to reach a plateau after 4-5 days. (see Example 3)

[8] = Enzyme stability upon storage at 4° C. (retention of activity); format: physicochemical; conditions: first twenty days
Protocol: Enzymatic stability was determined as the retention of enzyme activity overtime upon storage at 4° C. for the FGGsh155:CB[8] before and after immobilization, as well as the unmodified form of FGGsh155. Monitoring of the enzyme inactivation was determined using the CDNB/GSH substrate system.

[9] = CDNB/GSH substrate system, pH 6.5, 37° C., one active site per subunit

## N[C@@H](CCC(=O)N[C@@H](CS)C(=O)NCC(=O)O)C(=O)O [GSH, glutathione]
[1]; pH 6.5
  kcat/Km GSH: 1410 M⁻¹ s⁻¹
[1]; pH 6.5, read-out: Km GSH
  Km: 1430 ± 30 µM
[2]; pH 6.5
  kcat/Km GSH: 1594 M⁻¹ s⁻¹
[2]; pH 6.5, read-out: Km GSH
  Km: 1410 ± 50 µM
[3]; pH 6.5
  kcat/Km GSH: 1896.3 M⁻¹ s⁻¹
[3]; pH 6.5, read-out: Km GSH
  Km: 1480 ± 30 µM
[4]; pH 6.5
  kcat/Km GSH: 1978 M⁻¹ s⁻¹
[4]; pH 6.5, read-out: Km GSH
  Km: 1360 ± 20 µM
[5]; 20 mM KH2PO4, pH 7.0, 37° C.
  kcat/Km GSH: 16.8 M⁻¹ s⁻¹
[5]; CDNB 1 mM, 20 mM KH2PO4, pH 7.0, 37° C., read-out: Km GSH
  Km: 1260 ± 80 µM

## O=[N+]([O-])c1ccc(Cl)c([N+](=O)[O-])c1 [CDNB, 1-chloro-2,4-dinitrobenzene]
[1]; free enzyme, CDNB variable, five days after CB[8] addition 1:1, pH 6.5, 37° C.
  nH (Hill coefficient): 1.01 ± 0.02
[1]; free enzyme, CDNB/GSH substrate system, five days after CB[8] addition 1:1, pH 6.5, 37° C.
  kcat: 2.02 ± 0.019 s⁻¹
[1]; free enzyme, GSH at fixed concentration, five days after CB[8] addition 1:1, pH 6.5, 37° C.
  S0.5 CDNB: 0.81 ± 0.05 mM
[1]; free enzyme, five days after CB[8] addition 1:1, pH 6.5, 37° C.
  kcat/S0.5 CDNB: 2489.7 M⁻¹ s⁻¹
[2]; CDNB variable, five days after CB[8] addition 1:1, pH 6.5, 37° C.
  nH (Hill coefficient): 1.1 ± 0.06
[2]; CDNB/GSH substrate system, five days after CB[8] addition 1:1, pH 6.5, 37° C.
  kcat: 2.248 ± 0.0547 s⁻¹
[2]; five days after CB[8] addition 1:1, pH 6.5, 37° C.
  kcat/S0.5 CDNB: 4014.8 M⁻¹ s⁻¹
[3]; CDNB variable, pH 6.5, 37° C.
  nH (Hill coefficient): 1.01 ± 0.03
[3]; [9]
  kcat: 2.807 ± 0.0453 s⁻¹
[3]; pH 6.5, 37° C.
  kcat/S0.5 CDNB: 3645 M⁻¹ s⁻¹
[4]; CDNB variable, pH 6.5, 37° C.
  nH (Hill coefficient): 1.17 ± 0.03
[4]; [9]
  kcat: 2.657 ± 0.0202 s⁻¹
[4]; pH 6.5, 37° C.
  kcat/S0.5 CDNB: 6625.2 M⁻¹ s⁻¹
[5]; 20 mM KH2PO4, pH 7.0, 37° C.
  kcat/S0.5 CDNB: 19 M⁻¹ s⁻¹
[5]; CDNB variable, GSH 2.5 mM, pH 7.0, 37° C.
  nH (Hill coefficient): 1.47 ± 0.12
[5]; CDNB/GSH substrate system, 20 mM KH2PO4, pH 7.0, 37° C.
  kcat: 0.0213 ± 0.002 s⁻¹

B1: sh101: phi class cytosolic glutathione S-transferase mutant from DNA shuffling, without FGG tag (protein)
chain: MFGGAPVKVFGPAMSTNVARVTLCLEEVGAEYEVVNIDFNTMEHKSPEHLARNPFGQIPAFQDGDLLLWESRAISKYVLRKYKTDEVDLLREGNLKEAAMVDVWTEYDAHTYNPALSPIVYECLINPLMRGLPTNQTVVDESLEKLKKVLEVYEARLSQHKYLAGDFVSFADLNHFPYTFYFMATPHAALFDSYPHVKAWWDRLMARPAVKKIAATMVPPKA
[6]; 1:1 and 2:1, almost ten days
  effect of CB[8] addition on Tm of enzyme forms that weren't FGG-tagged: did not induce the appearance of an additional Tm value

B2: FGGsh101: phi class GST mutant sh101 (SEQ ID NO: 1) with N-terminal phenylalanine-glycine-glycine tag; dimer (protein)
chain: MFGGAPVKVFGPAMSTNVARVTLCLEEVGAEYEVVNIDFNTMEHKSPEHLARNPFGQIPAFQDGDLLLWESRAISKYVLRKYKTDEVDLLREGNLKEAAMVDVWTEYDAHTYNPALSPIVYECLINPLMRGLPTNQTVVDESLEKLKKVLEVYEARLSQHKYLAGDFVSFADLNHFPYTFYFMATPHAALFDSYPHVKAWWDRLMARPAVKKIAATMVPPKA
modifications: N-terminal FGG tag; dimer
[7]
  catalytic constant: 134.9 ± 3.28 min⁻¹
  kcat: 2.657 ± 0.0202 s⁻¹
[6]
  second distinct melting point Tm2: ≈ 85 °C
  increase in Tm1: 1.5-2 °C

B3: FGGsh155: phi class GST mutant sh155 (SEQ ID NO: 2) with N-terminal phenylalanine-glycine-glycine tag; dimer (protein)
chain: MFGGAPVKVFGPAMSTNVARVTLCLEEVGAEYEVVDIDFKAMEHKSPEHLVRNPFGQIPAFQDGDLLLFESRAIAKYVLRKYKTDEVDLLREGNLKEAAMVDVWTEYDAHTYNPALSPIVYECLINPLMRGLPTNQTVVDESLEKLKKVLEVYEARLSQHKYLAGDFVSFADLNHFPYTFYFMATPHAALFDSYPHVKAWWDRLMARPAVKKIAATMVPPKA
modifications: N-terminal FGG tag; dimer
[8]
  retained activity: approximately 50%
[7]
  catalytic constant: 121 ± 1.14 min⁻¹
  kcat: 2.807 ± 0.0453 s⁻¹
[6]
  second distinct melting point Tm2: ≈ 85 °C
  increase in Tm1: up to 3.5 °C
